≈ marks a conversion by molar mass, not a printed value. Where two headings read alike, the source gives them in different places. Positions of bridges follow the written chain, without caps; N, C: chain ends. Non-standard residues stand in square brackets, D forms with d. Residues, ends and D or L forms follow the SMILES beside them. Chains are numbered I, II in the order given. No end group written: not given here. Ahx = NCCCCCC(=O)O

Series [1] concerns C. albicans SC5314. In kind it is cell-based, Candida albicans. The settings on record: for Inhibition of growth: SC5314, 48 h; for Time-kill result: Fungicide concentration / Time-kill result: Fungistatic concentration: after 48 h of incubation, RPMI 1640, 37 °C, Bioscreen C. How it is done: (§1) A time-kill kinetic assay was carried out according to the method previously described by Pfaller and coworkers with minor modifications. The peptides (C5, C6, C8, and C9) diluted in RPMI were tested at a range of concentrations: 0 (control), 0.2, 0.5, 1, and 2 times the MIC value for each strain. The isolates were subcultured on SBD, and then an inoculum was adjusted to a 0.5–2.5 × 10^3 CFU/mL in an RPMI 1640 medium. Yeast inoculum (150 uL) was added to a 100-well plate containing serial dilutions of the peptides. The plates were incubated with agitation at 37 °C in a plate reader (Bioscreen C MBR automated turbidometric analyzer, Growth Curves Ltd., Helsinki, Finland), which takes hourly absorbance readings. Moreover, fluconazole MICs were used as a control. The readings were analyzed with Bioscreen software (Growth Curves USA, Piscataway, NJ, USA) and GraphPad Prism 8.0.1 (GraphPad Soft-ware, San Diego, CA, USA). Statistical comparisons were made using an analysis of variance (two-way ANOVA) followed by a Tukey–Kramer post hoc test. P values less than 0.005 were considered significant. […] Moreover, previously determined FLC MICs (data not shown) were used as a control.

For series [2], the system named is C. albicans 256. It counts as cell-based, Candida albicans. Particulars: for Inhibition of growth: 256, 48 h; for Time-kill result: Fungicide concentration / Time-kill result: Fungistatic concentration: after 48 h of incubation, RPMI 1640, 37 °C, Bioscreen C. The procedure: as §1
In series [3] the test system is C. albicans 256 HUSI-PUJ. In kind it is cell-based, Candida albicans. The procedure:
(§2) The in vitro interactions between the peptides (C6, C8, and C9) and the FLC drug were evaluated in a checkerboard assay, as previously described by Cokol et al.. Briefly, each isolate was prepared by picking colonies from an overnight culture in SBD at 37 °C and suspended in a sterile normal saline PBS buffer. The fungal inoculum was adjusted to 0.5 MacFarland and the inoculum was adjusted to 0.5–2.5 × 10^3 CFU/mL. The drug-peptide combinations were formed over a range of concentrations: 0 (control) and 0.06 to 2 times the MIC [51]. The fractional inhibitory concentration index (FICI) was calculated as follows:
(§3) FICI=CML peptide in combination/CMI peptide alone+CML FLC in combination/CMI FLC alone
(§4) The calculated FICI was reported as synergy with values FICI ≤ 0.5, additive FICI > 0.5–1, indifference FICI > 1–4, and antagonism FICI ≥ 4 [52].
(§5) A synergistic effect was considered to be when the effect of the combination exceeded the effects of the individual components. An additive effect was when the effect of the combination was equal to the sum of the effects of the individual components.

In series [4] the test system is C. albicans ATCC SC5314. In kind it is cell-based, Candida albicans. How it is done:
(§6) Antifungal susceptibility testing was carried out using the broth microdilution (BMD) method, following the CLSI M27-A3 guidelines with slight modifications. Briefly, cells (0.5–2.5 × 10^3 CFU/mL) were incubated with peptides (200, 100, 50, 25, 12.5, and 6.25 µg/mL) at 37 °C for 48 h. MICs were visualized and densitometry (595 nm, microplate reader, Bio-Rad, ᵢMark^TM) was used to determine the lowest concentration of peptide that caused a significant decrease (MIC/2 or ≥50%) compared with the growth control (cells incubated in absence of peptide) (n = 3). In order to verify that the peptides were able to kill the yeast cells, the plates were also evaluated for minimum fungicidal concentration (MFC). Briefly, aliquots from each well from susceptibility testing assays were transferred to plates containing Sabouraud dextrose agar (SDA), which were then incubated at 37 °C for 24 h. The highest dilution with no growth on the agar plate was considered to be the MFC.

Series [5] deals with C. albicans 256 HUSI-PUJ. It counts as cell-based, Candida albicans. The settings on record: for MFC: 24 h; for MIC: 48 h. The procedure: as §6
The test system of series [6] is human red blood cells. The arrangement: method as in PMID 33369144. Particulars: cited from earlier work.
Series [7] relates to C. auris 001. In kind it is cell-based. Particulars: 001, 48 h. How it is done:
as §6

For series [8], the system named is C. auris 537. In kind it is cell-based. The settings on record: 537, 48 h. The procedure:
as §6

In series [9] the test system is C. glabrata 1875. In kind it is cell-based. The settings on record: 1875, 48 h. The procedure: as §6
Series [10] relates to C. auris 001 HUSI-PUJ. In kind it is cell-based. How it is done: as §2, §3, §4, §5
Series [11] concerns C. glabrata ATCC 2001. In kind it is cell-based. The procedure:
as §2, §3, §4, §5

For series [12], the system named is C. auris 537 HUSI-PUJ. It counts as cell-based. The procedure:
as §2, §3, §4, §5

The test system of series [13] is C. glabrata 1875 CHU-PUJ. In kind it is cell-based. How it is done: as §2, §3, §4, §5
In series [14] the test system is C. albicans ATCC SC5314. In kind it is cell-based, Candida albicans. How it is done: as §2, §3, §4, §5
The source holds these as a separate data set.

In series [15] the test system is E. coli. The settings on record: reported; cited from earlier work. An excerpt:
LfcinB (20–25): RRWQWR is the shortest sequence derived from LfcinB with antibacterial, antifungal, and anticancer activity. In similar way, Buforin II (BFII) is an antimicrobial peptide with activity against Gram-positive and Gram-negative bacteria as well as fungi. Palindromic sequences have been designed from the 4-residue motif (RLLR) of Buforin II, and their antibacterial activity has been evaluated against Gram-negative and Gram-positive strains. The palindrome [RLLR]5: […] was reported to have an MIC of 0.7 µM against E. coli. Chimeras containing the minimum motif RRWQW ...

The mark [16] stands for this setting: fungistatic = growth inhibition >70% for 48 h.
Setting [17] is: FLC-sensitive reference strain, broth microdilution CLSI M27-A3, 37 °C, 48 h, ≥50% decrease vs growth control, n = 3.
Setting [18] is: FLC-resistant clinical isolate, broth microdilution CLSI M27-A3, 37 °C, ≥50% decrease vs growth control, n = 3.
Setting [19] is: checkerboard run with C6, unit from footnote of Table 4.

The MFC is the smallest concentration meeting the test's criterion for killing the fungus. Lower therefore signals greater fungicidal potency. Broadly, the MIC is the lowest concentration that inhibits growth of the organism. Take `CC(C)C[C@H](NC(=O)[C@H](CC(C)C)NC(=O)[C@H](CCCNC(=N)N)NC(=O)[C@H](CCCNC(=N)N)NC(=O)[C@H](CC(C)C)NC(=O)[C@H](CC(C)C)NC(=O)[C@H](CCCNC(=N)N)NC(=O)CCCCCNC(=O)[C@H](CCCCN)NC(=O)[C@H](Cc1c[nH]c2ccccc12)NC(=O)[C@H](CCC(N)=O)NC(=O)[C@H](Cc1c[nH]c2ccccc12)NC(=O)[C@H](CCCCN)NC(=O)[C@@H](N)CCCCN)C(=O)N[C@@H](CCCNC(=N)N)C(N)=O` [C6] (H-KKWQWK[Ahx]RLLRRLLR-NH2): the Inhibition of growth entry in [1] and in series [2] was “more than 90%” throughout. For the same compound, the “MICa: MIC of the chimeric peptide alone” value in series [3] (256 HUSI-PUJ) stood at 100 mg/L; in series [10] (001 HUSI-PUJ), 400 mg/L; in series [11] (ATCC 2001) it was 100 mg/L; in [12] (537 HUSI-PUJ), 400 mg/L; in series [13] (1875 CHU-PUJ), 400 mg/L. Further, the MFC in series [4] (ATCC SC5314, 24 h) is reported as 48 µM; in series [5] (256 HUSI-PUJ), 48 µM. Also, the minimum inhibitory concentration (MIC) worked out at 24 µM in series [4] (ATCC SC5314, 48 h); 24 µM in series [5] (256 HUSI-PUJ); 96 µM (≈ 201 µg/mL) in [7]; 96 µM (≈ 201 µg/mL) in series [8]; 96 µM (≈ 201 µg/mL) in [9]. Also, the Hemolytic effect in series [6] was 2–4%.
For `CC(C)C[C@H](NC(=O)[C@H](CC(C)C)NC(=O)[C@H](CCCCN)NC(=O)[C@H](CCCCN)NC(=O)[C@H](CC(C)C)NC(=O)[C@H](CC(C)C)NC(=O)[C@H](CCCCN)NC(=O)CCCCCNC(=O)[C@H](CCCNC(=N)N)NC(=O)[C@H](Cc1c[nH]c2ccccc12)NC(=O)[C@H](CCC(N)=O)NC(=O)[C@H](Cc1c[nH]c2ccccc12)NC(=O)[C@H](CCCNC(=N)N)NC(=O)[C@@H](N)CCCNC(=N)N)C(=O)N[C@@H](CCCCN)C(N)=O` [C5] (H-RRWQWR[Ahx]KLLKKLLK-NH2), the Inhibition of growth result in [1] and in series [2] was “more than 90%” each time. Moreover, the minimum fungicidal concentration (MFC) is reported as 97 µM in series [4] (ATCC SC5314, 24 h) and 97 µM in [5] (256 HUSI-PUJ). Also, the Hemolytic effect in series [6] is reported as 2–4%.
In the case of `CC(C)C[C@H](NC(=O)[C@H](CC(C)C)NC(=O)[C@H](CCCNC(=N)N)NC(=O)CCCCCNC(=O)[C@H](CCCCNC(=O)[C@H](CCCNC(=N)N)NC(=O)[C@H](Cc1c[nH]c2ccccc12)NC(=O)[C@H](CCC(N)=O)NC(=O)[C@H](Cc1c[nH]c2ccccc12)NC(=O)[C@H](CCCNC(=N)N)NC(=O)[C@@H](N)CCCNC(=N)N)NC(=O)[C@H](CCCNC(=N)N)NC(=O)[C@H](Cc1c[nH]c2ccccc12)NC(=O)[C@H](CCC(N)=O)NC(=O)[C@H](Cc1c[nH]c2ccccc12)NC(=O)[C@H](CCCNC(=N)N)NC(=O)[C@@H](N)CCCNC(=N)N)C(=O)N[C@@H](CCCNC(=N)N)C(N)=O` [C8] (I: H-RRWQWRK[Ahx]RLLR-NH2 / II: H-RRWQWR; amide I:7-II:C; N-terminus assumed), the Inhibition of growth result in series [1] and in series [2] was “more than 90%” in each case. Further, the “Time-kill result: Fungicide concentration” value in [1] (fungicidal = yeast kill ≥99%) is recorded as 200 µg/mL; in series [1] (value in brackets), 73 µM; in series [2] (fungicidal = yeast kill ≥99%) it was 200 µg/mL; in series [2] (value in brackets), 73 µM. Also, the “Time-kill result: Fungistatic concentration” value in [1] (setting [16]) is 100 µg/mL; in series [1] (value in brackets) it was 37 µM; in [2] (setting [16]), 100 µg/mL; in [2] (value in brackets) it was 37 µM. The “Incubation time up to which yeast growth was completely inhibited” value in [1] (time-kill curve, peptide at 100 µg/mL (37 µM)) was “about 23 h”. The “Incubation time up to which yeast growth was inhibited” value in series [2] (time-kill curve, peptide at 100 µg/mL) is approximately 40 h. Besides, the entries for the “Effect of the combination with FLC (by FICI)” value in [14] (checkerboard) and in [3] (checkerboard) were “synergistic” and “indifferent”, respectively. The “MICa/A: factor by which the chimera is potentiated in combination” value was determined as 8 in series [14] (peptide combined with FLC) and 2 in series [3] (peptide combined with FLC). Besides, the minimal fungicidal concentration (MFC) in [4] (ATCC SC5314, 24 h) was 37 µM; in series [4] (FLC-sensitive reference strain, aliquots plated on SDA, 37 °C, 24 h, no growth), 100 mg/L; in [5] (256 HUSI-PUJ), 37 µM; in series [5] (FLC-resistant clinical isolate, aliquots plated on SDA, 37 °C, no growth), 100 mg/L. Besides, the MIC was determined as 37 µM in [4] (ATCC SC5314, 48 h); 100 mg/L in [4] (setting [17]); 37 µM in series [5] (256 HUSI-PUJ); 100 mg/L in [5] (setting [18]).
On to “RLLRRLLRRLLRRLLRRLLR [[RLLR]5, palindrome designed from the RLLR motif of Buforin II]”, for which the MIC in series [15] is given as 0.7 µM.
As for RLLRRRWQWR-NH2 [C3], the minimum fungicidal concentration (MFC) in series [4] (ATCC SC5314, 24 h) is on record as 131 µM; in [5] (256 HUSI-PUJ) it was 131 µM. The minimum inhibitory concentration (MIC) in [4] (ATCC SC5314, 48 h) was found to be 66 µM; in series [5] (256 HUSI-PUJ), 66 µM. Also, in [6], the Hemolytic effect is 2–4%.
`OC(Cn1cncn1)(Cn1cncn1)c1ccc(F)cc1F` [FLC, fluconazole, reference compound]: the minimum inhibitory concentration (MIC) in [4] (setting [17]) was 1 mg/L; in [5] (setting [18]), 64 mg/L. Further, the “MICb: MIC of fluconazole alone” value in [10] (setting [19]) turned out to be 32 mg/L; in series [11] (setting [19]), 0.3 mg/L; in series [12] (setting [19]), 64 mg/L; in series [13] (setting [19]) it was 4 mg/L.

Values taken from PMC9686985, “Chimeric Peptides Derived from Bovine Lactoferricin and Buforin II: Antifungal Activity against Reference Strains and Clinical Isolates of Candida spp” (Antibiotics, 2022).
